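All cell lines were grown in 96-well plates and treated with compound for 48 hours. TGI: concentration producing complete growth inhibition.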
Columns and labels:
Assay in all cases: NCI-60 cell line screen, 48 h
[1] = system: 786-0 renal
[2] = system: A498 renal
[3] = system: A549 NSCLC
[4] = system: ACHN renal
[5] = system: BT-549 breast
[6] = system: CAKI-1 renal
[7] = system: COLO 205 colon
[8] = system: DU-145 prostate
[9] = system: EKVX NSCLC
[10] = system: HCC-2998 colon
[11] = system: HCT-116 colon
[12] = system: HCT-15 colon
[13] = system: HOP-62 NSCLC
[14] = system: HOP-92 NSCLC
[15] = system: HS 578T breast
[16] = system: HT29 colon
[17] = system: IGROV1 ovarian
[18] = system: K-562 leukemia
[19] = system: KM12 colon
[20] = system: LOX IMVI melanoma
[21] = system: M14 melanoma
[22] = system: MALME-3M melanoma
[23] = system: MCF7 breast
[24] = system: MDA-MB-231 breast
[25] = system: MDA-MB-435
[26] = system: MDA-N
[27] = system: NCI-H23 lung
[28] = system: NCI-H460 lung
[29] = system: NCI-H522 lung
[30] = system: NCI/ADR-RES ovarian
[31] = system: OVCAR-4 ovarian
[32] = system: OVCAR-5 ovarian
[33] = system: OVCAR-8 ovarian
[34] = system: RXF 393 renal
[35] = system: SF-268 CNS
[36] = system: SF-295 CNS
[37] = system: SF-539 CNS
[38] = system: SK-MEL-2 melanoma
[39] = system: SK-MEL-28 melanoma
[40] = system: SK-MEL-5 melanoma
[41] = system: SK-OV-3 ovarian
[42] = system: SN12C renal
[43] = system: SNB-19 CNS
[44] = system: SNB-75 CNS
[45] = system: SR leukemia
[46] = system: SW-620 colon
[47] = system: T-47D breast
[48] = system: TK-10 renal
[49] = system: U251 CNS
[50] = system: UACC-257 melanoma
[51] = system: UACC-62 melanoma
[52] = system: UO-31 renal
[53] = system: CCRF-CEM leukemia
[54] = system: HL-60(TB) leukemia
[55] = system: MOLT-4 leukemia
[56] = system: NCI-H226 lung
[57] = system: OVCAR-3 ovarian
[58] = system: PC-3 prostate
[59] = system: RPMI-8226 leukemia

Measured: TGI

COc1cc(-c2nc3nc(N4CCN(C)CC4)ccc3[nH]2)c(OC)c2[nH]c(COC(C)=O)nc12
35.4 µM: [37]
43.9 µM: [23]
83.3 µM: [19]
61.8 µM: [16]
58.6 µM: [11]
98.8 µM: [42]
67.9 µM: [22]
99.3 µM: [28]
73.6 µM: [20]
72.4 µM: [1]
46.5 µM: [49]
47.4 µM: [38]
34.4 µM: [21]
30.6 µM: [10]
63.6 µM: [24]
82.1 µM: [41]
86.7 µM: [34]
85.2 µM: [52]
61.4 µM: [50]
35.6 µM: [40]
not listed: [53] | [54] | [55] | [56] | [57] | [58] | [59]
> 100 µM: all other assays above

O=C(O)C1SCCS1
not listed: [6] | [15] | [19] | [29] | [34] | [37] | [38]
> 100 µM: all other assays above

c1cncc(CNc2ncn[nH]2)c1
not listed: [10] | [53] | [54]
> 100 µM: all other assays above

C/C(N=Nc1nc2ccccc2o1)=C1/C=CC=CN1O
81.2 µM: [23]
24.5 µM: [10]
24.3 µM: [9]
34.9 µM: [48]
39.7 µM: [14]
12.2 µM: [22]
28.1 µM: [32]
6.3 µM: [55]
10.1 µM: [36]
7.69 µM: [57]
29 µM: [6]
19.5 µM: [45]
26.7 µM: [29]
89.1 µM: [30]
62 µM: [37]
not listed: [44] | [54]
> 100 µM: all other assays above
